Series [1] is described as follows: Fluorescence emission maximum and fluorescence quantum efficiency of the dyes. In kind it is physicochemical. The protocol:
Representative novel dyes of this invention are listed in Table I below in reference to the illustrated structure above. Of these, Compound 4 is preferred for use in biological studies and assays because it can be used at a pH of 7 or less. In Table I, the "fluorescence quantum efficiency" was determined by procedures described by Birks in Standardization in Spectrophotometry and Luminescence Measurements, Mielenz et al (Eds.), Nat. Bureau of Standards Special Publication 466 (1977).

Series [2] deals with carboxyl esterase, Type I. The experiment in a line: Determination of an esterase enzyme by hydrolysis of the hydrolyzable substrate (fluorometer). The following applies: final enzyme activity 48 I.U., HEPES pH 7.8, excitation 540 nm, emission 610 nm. In kind it is biochemical. On the procedure:
The hydrolyzable compound used is represented by the structure: [drawing 11]
A test solution was prepared from the following: the hydrolyzable substrate (50 μl of a solution of 0.1 mg/0.5 ml of methanol), 0.05 molar HEPES buffer (3 μl, pH 7.8) and the esterase enzyme carboxyl esterase, Type I (50 μl). A Control solution was similarly prepared by omitting the enzyme. Fluorescence of the released fluorescent dye was measured with a commercially available fluorometer when the enzyme was first added to the test solution and at various times thereafter (excitation at 540 nm and emission at 610 nm). The Control solution was similarly evaluated at the indicated times.

With `Cc1cc(O)cc2c1cc1c3c(cccc32)C(=O)C=C1` [Compound 1], in series [1] (in methanol), the “Emission (λmax)” value worked out at 542 nm and the “Fluorescence Quantum Efficiency” value came out at 0.4.

As for `Cc1cc(O)cc2c1cc1c3c(cccc32)C(=O)C=C1` [Compound 2], in series [1] (in 5:1 water/methanol), the “Emission (λmax)” value turned out to be 635 nm. The “Fluorescence Quantum Efficiency” value in series [1] (solvent in 5:1 water/methanol) is 0.18.

Take `Cc1cc(O)c(Cl)c2c1cc1c3c(cccc32)C(=O)C=C1` [Compound 3]: in series [1] (in methanol), the “Emission (λmax)” value is 629 nm and the “Fluorescence Quantum Efficiency” value is on record as 0.55.

In the case of `Cc1cc(O)c(Cl)c2c1cc1c3c(cccc32)C(=O)C=C1` [Compound 4], the “Emission (λmax)” value in series [1] (in 5:1 water/methanol) is given as 628 nm. Moreover, the “Fluorescence Quantum Efficiency” value in series [1] (solvent in 5:1 water/methanol) is given as 0.42.

Take `Cc1cc(OC(=O)N(C)c2ccccc2)c(Cl)c2c1cc1c3c(cccc32)C(=O)C=C1` [Compound 5]: in series [1] (in 5:1 water/methanol), the “Emission (λmax)” value amounted to 550 nm. In addition, the “Fluorescence Quantum Efficiency” value in series [1] (solvent in 5:1 water/methanol) is recorded as 0.01.

As for `Cc1cc(N2CCCC2)cc2c1cc1c3c(cccc32)C(=O)C=C1` [Compound 6], in series [1] (in methanol), the “Emission (λmax)” value was 655 nm and the “Fluorescence Quantum Efficiency” value stood at 0.52.

With `CCCCOC(=O)c1cc(O)cc2c1cc1c3c(cccc32)C(=O)C=C1` [Compound 7], in series [1] (in methanol), the “Emission (λmax)” value was determined as 525 nm and the “Fluorescence Quantum Efficiency” value is recorded as 0.4.

In the case of `CCCCOC(=O)c1cc(O)cc2c1cc1c3c(cccc32)C(=O)C=C1` [Compound 8], the “Emission (λmax)” value in series [1] (in 5:1 water/methanol) is 630 nm. Also, in series [1] (solvent in 5:1 water/methanol), the “Fluorescence Quantum Efficiency” value is on record as 0.3.

Regarding `CCCCOC(=O)c1cc(O)c(Cl)c2c1cc1c3c(cccc32)C(=O)C=C1` [Compound 9], in series [1] (in 5:1 water/methanol), the “Emission (λmax)” value is 625 nm. Also, the “Fluorescence Quantum Efficiency” value in series [1] (solvent in 5:1 water/methanol) came out at 0.56.

Turning to `CC(=O)Oc1cc(C)c2cc3c4c(cccc4c2c1Cl)C(=O)C=C3` [Example 6], the “Δ Relative Fluorescence (Minutes) 0” value in series [2] (0 minutes) worked out at 8.1. For the same molecule, the “Δ Relative Fluorescence (Minutes) 1” value in series [2] (1 minute) is 31.5. In addition, in series [2] (2 minutes), the “Δ Relative Fluorescence (Minutes) 2” value is 32.1. In addition, the “Δ Relative Fluorescence (Minutes) 5” value in series [2] (5 minutes) is 33.3.

Source of the values: patent publication US4812393A, “Fluorescent dyes and biological and analytical uses thereof” (priority 1986, dated 1989).
